According to article PMC11172460 (International Journal of Molecular Sciences, 2024):

Experiments:
[1] = Hydrolysis kinetics in rat liver homogenates; format: in vitro ADME
Method: Livers were obtained from male Wistar rats, which were sacrificed by decapitation, after a slight isoflurane anesthesia. The livers were immediately isolated, and, after washing with ice-cold saline solution, they were homogenized in 4 volumes (w/v) of Tris HCl (50 mM, pH 7.4, 4 °C) by using a Potter–Elvehjem apparatus. The supernatant obtained after centrifugation (2000× g for 10 min at 4 °C) was decanted off and stored at −80 °C before its use for kinetic studies.
Kinetic analysis of Fer-Ger was performed by its incubation at 37 °C in 3 mL of rat liver or brain homogenates at 30 µM (9.92 µg/mL) final concentration. At defined time intervals, 100 μL of homogenates were withdrawn and immediately treated by quenching them in EtOH (250 µL), then an internal standard (100 μM carbazole dissolved in EtOH, 50 µL) was added. The samples were centrifuged (13,500× g for 10 min), and the 300 μL aliquots were reduced to dryness under a nitrogen stream. […]
The Fer-Ger degradation in whole blood or homogenates was analyzed as exponential decay plots of its concentrations versus incubation time, and the related half-life values were obtained from the linear regression of the corresponding semi-logarithmic plots. The quality of the fits was evaluated by considering the correlation coefficients (r) and p values. […]
Fer-Ger and its hydrolysis product, Ger, were quantified by HPLC. […]

[2] = Hydrolysis kinetics in rat whole blood; format: in vitro ADME
Method: Kinetic analysis of Fer-Ger was performed by incubating the compound at 37 °C in heparinized whole blood obtained from healthy human volunteers or from male Wistar rats weighing 200–250 g. In particular, appropriate amounts of stock solution in DMSO were added to a volume of 3 mL of whole blood in order to obtain the final concentration of 30 µM (9.92 µg/mL). Samples (100 μL) were withdrawn at defined time intervals and immediately treated. Specifically, they were firstly added to ice-cold water (500 µL); then, sulfosalicylic acid (10%, 50 µL) and the internal standard (100 μM carbazole dissolved in a mixture of MeOH and H2O 50:50 v/v, 50 µL) were added; finally, 1 mL of H2O-saturated ethyl acetate was used twice as extraction solvent. The samples were centrifuged (13,500× g for 10 min) and the organic phase was evaporated under a nitrogen stream. The residue was re-suspended in a mixture of H2O and CH3CN (50:50 v/v, 150 µL) and centrifuged (16,000× g for 5 min). […] All the values were derived from the mean of three independent incubation experiments.
The Fer-Ger degradation in whole blood or homogenates was analyzed as exponential decay plots of its concentrations versus incubation time, and the related half-life values were obtained from the linear regression of the corresponding semi-logarithmic plots. The quality of the fits was evaluated by considering the correlation coefficients (r) and p values. The computer program GraphPad Prism 7 (GraphPad, San Diego, CA, USA) allowed to perform the calculations.
(§1) Fer-Ger and its hydrolysis product, Ger, were quantified by HPLC. The chromatographic apparatus consisted of a modular system (model LC-40D) pump and DAD detector (model SPD-M40, Shimadzu, Kyoto, Japan) and an injection valve with a 20 μL sample loop (model 7725; Rheodyne, IDEX, Torrance, CA, USA).

[3] = Kinetic analysis (stability) in Tris-HCl buffer; format: physicochemical; settings: Tris-HCl buffer pH 7.4 (with MeOH 70:30), 37 °C, three hours, 20 µM
Method: Kinetic analysis of Fer-Ger was performed by its incubation at 20 µM (6.61 µg/mL) final concentration and at 37 °C in 30 mL of a mixture of Tris-HCl buffer 50 mM (pH 7.4) and MeOH 70:30 (v/v). […] All the values were derived from the mean of three independent incubation experiments.
as §1

[4] = Hydrolysis in rat liver homogenates of free or SLM-encapsulated Fer-Ger; format: in vitro ADME
Method: Since SLMs were suspended in the medium, it was difficult to withdraw several homogeneous samples, and consequently, stability was assessed by a single sampling after 10 min of incubation. Dichloromethane (1 mL) was added, and 250 μL was withdrawn from the samples and quenched in 500 μL of ice-cold ethanol added with 100 μL of internal standard (100 μM carbazole dissolved in ethanol). After 5 min of centrifugation at 16,000× g, 600 μL aliquots were reduced to dryness under a nitrogen stream. […] The same procedure was adopted for free Fer-Ger by adding appropriate amounts of stock solution in DMSO to a volume of 3 mL of rat liver homogenates in order to obtain the final concentration of 30 µM (9.92 µg/mL). In this case, the Fer-Ger hydrolysis was analyzed both in the absence or in the presence of unloaded Ts SLMs or Ts-glu SLMs, whose amounts were equivalent to those of their parent-loaded FG Ts SLMs or FG Ts-glu SLMs, respectively. All the values obtained are the means of four independent experiments.

Question: With `COc1cc(/C=C/C(=O)OC/C=C(\C)CCC=C(C)C)ccc1O` [Fer-Ger, Geranyl ferulate] as the compound, how does the “time to complete hydrolysis” value [1] read?
Answer: Its value is “about 30 min”.

Question: And the half-life at 30 µM ([1]; male, Wistar, liver homogenate, pH 7.4, 37 °C, 30 µM, pseudo-first-order kinetic)?
Answer: The half-life at 30 µM was 3.94 ± 0.33 min.

Question: And the half-life at 30 µM ([2]; male, Wistar, heparinized whole blood, rat whole blood, 37 °C, 30 µM, pseudo-first-order kinetic, read-out: half-life (t1/2) of hydrolysis)?
Answer: The half-life at 30 µM was 20.1 ± 0.75 min.

Question: And the “time to almost complete degradation” value ([2]; rat whole blood)?
Answer: The value was at most 2 h.

Question: What about the “hydrolysis rate relative to human whole blood” value ([2]; rat whole blood vs human whole blood) of the same compound?
Answer: Its value is “about 10 times faster”.

Question: And the “degradation in Tris-HCl buffer” value [3]?
Answer: Its value is “not degraded”.

Question: And the “hydrolysis rate in the presence of unloaded SLMs” value ([4]; free Fer-Ger in rat liver homogenates with unloaded SLMs)?
Answer: Its value is “substantially unaffected”.

Question: And the prodrug hydrolyzed ([4]; free solubilized prodrug, 10 min incubation in rat liver homogenates, about 30 μM)?
Answer: The prodrug hydrolyzed was “about 90%”.
